According to patent publication US8603527B2, “Pharmaceutical formulations of a substituted diaminopurine” (Signal Pharmaceuticals, LLC, priority 2010, dated 2013):
Read-outs that look alike come from different tables or passages of the source.

Key:
[1] = tested on: healthy volunteers; experiment: Safety and tolerability of ascending multiple oral doses in healthy volunteers; format: in vivo, human
Description: Study Design: This study was a randomized, double-blind, placebo-controlled, ascending-dose trial to evaluate the safety, tolerability and pharmacokinetics (PK) of multiple oral doses of Compound I. Subjects were enrolled into 1 of the 4 cohorts, 10 subjects per cohort (active:placebo=8:2). Subjects received a multiple oral dose of 25, 50, 100, or 200 mg unformulated Compound I in a capsule, or matching placebo, once daily (QD) for 14 days.
Assessments: Safety and tolerability were assessed by adverse event (AE) monitoring, clinical laboratory testing, vital sign measurement, 12-lead ECG measurement, concomitant medication assessment, and physical examination. Blood and urine samples were collected to assess the PK profile of Compound I and the S-cis isomer of Compound I. Blood samples (˜5 mL) for plasma PK analysis were collected in K2-EDTA vacutainer tubes to yield approximately 2 mL of plasma at each of the following time points: (i) Day 1: before dosing, and 0.25, 0.5, 1, 1.5, 2, 2.5, 3, 4, 6, 8, 10, 12, 16, and 24 hours after dosing; (ii) Day 3 to Day 9: before dosing; (iii) Day 10: before dosing, and 0.25, 0.5, 1, 1.5, 2, 2.5, 3, 4, 6, 8, 10, 12, and 16 hours after dosing; (iv) Day 11 to Day 13: before dosing; (v) Day 14: before dosing, and 0.25, 0.5, 1, 1.5, 2, 2.5, 3, 4, 6, 8, 10, 12, 16, 24, 48, 72, 96, 120, 144, and 168 hours after dosing. Urine samples for the PK analysis were collected as a single block at: (i) Day 1: before dosing (spot collection), 0 to 8, 8 to 16, and 16 to 24 hours after dosing; and (ii) Day 14: 0 to 8, 8 to 16, and 16 to 24 hours after dosing. Both plasma and urine concentrations of Compound I and its S-cis isomer were measured using validated liquid chromatography-tandem mass spectrometry (LC/MS/MS).
Data Analysis: Safety data were summarized using descriptive statistics by treatment. PK parameters for Compound I and its S-cis isomer were calculated using non-compartmental analysis using WinNonlin (Version 5.0.1 or greater; Pharsight Corporation, Mountain View, Calif.). Dose proportionality and dose independence were evaluated by visual inspection. Intra-subject variability was assessed using an ANOVA model using data from Days 10 and 14.

[2] = Pharmacokinetics of a single ascending oral dose in healthy male subjects; format: in vivo, human; details: for AUC(0-inf) / AUC(0-t) / Cmax / half-life / Vd/F / Tmax: human, in vivo; for Vd/F: read-out: Vz/F
Description: Methods: The study was a randomized, double-blind, placebo-controlled, single-ascending-dose trial. Forty-five healthy male subjects were enrolled into 1 of the 5 cohorts (active:placebo=7:2 per cohort). Subjects received single oral doses of 5 mg, 25 mg, 50 mg, 100 mg or 200 mg of unformulated Compound I in a capsule, or matching placebo.

[3] = single oral dose 5 mg, unformulated in capsule, healthy male subjects, geometric mean
[4] = single oral dose 25 mg, unformulated in capsule, healthy male subjects, geometric mean
[5] = single oral dose 50 mg, unformulated in capsule, healthy male subjects, geometric mean
[6] = single oral dose 100 mg, unformulated in capsule, healthy male subjects, geometric mean
[7] = single oral dose 200 mg, unformulated in capsule, healthy male subjects, geometric mean
[8] = male, single oral doses 5-200 mg

SMILES: O[C@H]1CC[C@H](Nc2ncc3nc(Nc4c(F)cc(F)cc4F)n([C@H]4CCOC4)c3n2)CC1 [Compound I, 4-((9-((3S)-tetrahydro-3-furanyl)-8-((2,4,6-trifluorophenyl)amino)-9H-purin-2-yl)amino)-trans-cyclohexanol]
- Dermatitis contact, number of subjects reporting TEAE ([1]; 25 mg QD for 14 days (N = 8)): 0 n (%)
- Dizziness, number of subjects reporting TEAE ([1]; 25 mg QD for 14 days (N = 8)): 0 n (%)
- Flatulence, number of subjects reporting TEAE ([1]; 25 mg QD for 14 days (N = 8)): 0 n (%)
- Headache, E = number of TEAE ([1]; 25 mg QD for 14 days (N = 8)): 1
- Headache, number of subjects reporting TEAE ([1]; 25 mg QD for 14 days (N = 8)): 1 (12.5) n (%)
- Nasal congestion, E = number of TEAE ([1]; 25 mg QD for 14 days (N = 8)): 1
- Nasal congestion, number of subjects reporting TEAE ([1]; 25 mg QD for 14 days (N = 8)): 1 (12.5) n (%)
- Nausea, E = number of TEAE ([1]; 25 mg QD for 14 days (N = 8)): 1
- Nausea, number of subjects reporting TEAE ([1]; 25 mg QD for 14 days (N = 8)): 1 (12.5) n (%)
- Pharyngolaryngeal pain, number of subjects reporting TEAE ([1]; 25 mg QD for 14 days (N = 8)): 0 n (%)
- Rhinitis, number of subjects reporting TEAE ([1]; 25 mg QD for 14 days (N = 8)): 0 n (%)
- Total TEAEs, E = number of TEAE ([1]; 25 mg QD for 14 days (N = 8)): 6
- Total TEAEs, number of subjects reporting TEAE ([1]; 25 mg QD for 14 days (N = 8)): 3 (37.5) n (%)
- Dermatitis contact, E = number of TEAE ([1]; 50 mg QD for 14 days (N = 8)): 1
- Dermatitis contact, number of subjects reporting TEAE ([1]; 50 mg QD for 14 days (N = 8)): 1 (12.5) n (%)
- Dizziness, number of subjects reporting TEAE ([1]; 50 mg QD for 14 days (N = 8)): 0 n (%)
- Flatulence, E = number of TEAE ([1]; 50 mg QD for 14 days (N = 8)): 4
- Flatulence, number of subjects reporting TEAE ([1]; 50 mg QD for 14 days (N = 8)): 2 (25.0) n (%)
- Headache, E = number of TEAE ([1]; 50 mg QD for 14 days (N = 8)): 2
- Headache, number of subjects reporting TEAE ([1]; 50 mg QD for 14 days (N = 8)): 2 (25.0) n (%)
- Nasal congestion, number of subjects reporting TEAE ([1]; 50 mg QD for 14 days (N = 8)): 0 n (%)
- Nausea, number of subjects reporting TEAE ([1]; 50 mg QD for 14 days (N = 8)): 0 n (%)
- Pharyngolaryngeal pain, number of subjects reporting TEAE ([1]; 50 mg QD for 14 days (N = 8)): 0 n (%)
- Rhinitis, E = number of TEAE ([1]; 50 mg QD for 14 days (N = 8)): 1
- Rhinitis, number of subjects reporting TEAE ([1]; 50 mg QD for 14 days (N = 8)): 1 (12.5) n (%)
- Total TEAEs, E = number of TEAE ([1]; 50 mg QD for 14 days (N = 8)): 20
- Total TEAEs, number of subjects reporting TEAE ([1]; 50 mg QD for 14 days (N = 8)): 6 (75.0) n (%)
- Dermatitis contact, number of subjects reporting TEAE ([1]; 100 mg QD for 14 days (N = 8)): 0 n (%)
- Dizziness, E = number of TEAE ([1]; 100 mg QD for 14 days (N = 8)): 2
- Dizziness, number of subjects reporting TEAE ([1]; 100 mg QD for 14 days (N = 8)): 2 (25.0) n (%)
- Flatulence, number of subjects reporting TEAE ([1]; 100 mg QD for 14 days (N = 8)): 0 n (%)
- Headache, E = number of TEAE ([1]; 100 mg QD for 14 days (N = 8)): 3
- Headache, number of subjects reporting TEAE ([1]; 100 mg QD for 14 days (N = 8)): 3 (37.5) n (%)
- Nasal congestion, number of subjects reporting TEAE ([1]; 100 mg QD for 14 days (N = 8)): 0 n (%)
- Nausea, number of subjects reporting TEAE ([1]; 100 mg QD for 14 days (N = 8)): 0 n (%)
- Pharyngolaryngeal pain, E = number of TEAE ([1]; 100 mg QD for 14 days (N = 8)): 1
- Pharyngolaryngeal pain, number of subjects reporting TEAE ([1]; 100 mg QD for 14 days (N = 8)): 1 (12.5) n (%)
- Rhinitis, E = number of TEAE ([1]; 100 mg QD for 14 days (N = 8)): 1
- Rhinitis, number of subjects reporting TEAE ([1]; 100 mg QD for 14 days (N = 8)): 1 (12.5) n (%)
- Total TEAEs, E = number of TEAE ([1]; 100 mg QD for 14 days (N = 8)): 10
- Total TEAEs, number of subjects reporting TEAE ([1]; 100 mg QD for 14 days (N = 8)): 4 (50.0) n (%)
- Dermatitis contact, E = number of TEAE ([1]; 200 mg QD for 14 days (N = 8)): 1
- Dermatitis contact, number of subjects reporting TEAE ([1]; 200 mg QD for 14 days (N = 8)): 1 (12.5) n (%)
- Dizziness, E = number of TEAE ([1]; 200 mg QD for 14 days (N = 8)): 1
- Dizziness, number of subjects reporting TEAE ([1]; 200 mg QD for 14 days (N = 8)): 1 (12.5) n (%)
- Flatulence, number of subjects reporting TEAE ([1]; 200 mg QD for 14 days (N = 8)): 0 n (%)
- Headache, number of subjects reporting TEAE ([1]; 200 mg QD for 14 days (N = 8)): 0 n (%)
- Nasal congestion, E = number of TEAE ([1]; 200 mg QD for 14 days (N = 8)): 1
- Nasal congestion, number of subjects reporting TEAE ([1]; 200 mg QD for 14 days (N = 8)): 1 (12.5) n (%)
- Nausea, E = number of TEAE ([1]; 200 mg QD for 14 days (N = 8)): 3
- Nausea, number of subjects reporting TEAE ([1]; 200 mg QD for 14 days (N = 8)): 1 (12.5) n (%)
- Pharyngolaryngeal pain, E = number of TEAE ([1]; 200 mg QD for 14 days (N = 8)): 1
- Pharyngolaryngeal pain, number of subjects reporting TEAE ([1]; 200 mg QD for 14 days (N = 8)): 1 (12.5) n (%)
- Rhinitis, number of subjects reporting TEAE ([1]; 200 mg QD for 14 days (N = 8)): 0 n (%)
- Total TEAEs, E = number of TEAE ([1]; 200 mg QD for 14 days (N = 8)): 15
- Total TEAEs, number of subjects reporting TEAE ([1]; 200 mg QD for 14 days (N = 8)): 3 (37.5) n (%)
- serious or severe TEAE ([1]; 25-200 mg QD for 14 days): no serious or severe TEAE was reported
- subjects reporting treatment-emergent adverse events ([1]; active, 25-200 mg QD for 14 days): 16/32
- tolerability ([1]; doses up to 200 mg QD for 14 days): well tolerated
- AUC(0-inf) [2, 3]: 625 ng·h/mL
- AUC(0-t) [2, 3]: 567 ng·h/mL
- Cmax [2, 3]: 34.7 ng/mL
- half-life [2, 3]: 19.1 h
- Vd/F [2, 3]: 221 L
- Tmax ([2]; single oral dose 5 mg, unformulated in capsule, healthy male subjects, median (min-max), read-out: Tmax): 1.5 h
- AUC(0-inf) [2, 4]: 3600 ng·h/mL
- AUC(0-t) [2, 4]: 3150 ng·h/mL
- Cmax [2, 4]: 163 ng/mL
- half-life [2, 4]: 24.1 h
- Vd/F [2, 4]: 241 L
- Tmax ([2]; single oral dose 25 mg, unformulated in capsule, healthy male subjects, median (min-max), read-out: Tmax): 1.5 h
- AUC(0-inf) [2, 5]: 7320 ng·h/mL
- AUC(0-t) [2, 5]: 6700 ng·h/mL
- Cmax [2, 5]: 367 ng/mL
- half-life [2, 5]: 20.4 h
- Vd/F [2, 5]: 202 L
- Tmax ([2]; single oral dose 50 mg, unformulated in capsule, healthy male subjects, median (min-max), read-out: Tmax): 2 h
- AUC(0-inf) [2, 6]: 13600 ng·h/mL
- AUC(0-t) [2, 6]: 10800 ng·h/mL
- Cmax [2, 6]: 471 ng/mL
- half-life [2, 6]: 27.5 h
- Vd/F [2, 6]: 293 L
- Tmax ([2]; single oral dose 100 mg, unformulated in capsule, healthy male subjects, median (min-max), read-out: Tmax): 2 h
- AUC(0-inf) [2, 7]: 26400 ng·h/mL
- AUC(0-t) [2, 7]: 23100 ng·h/mL
- Cmax [2, 7]: 1430 ng/mL
- half-life [2, 7]: 25 h
- Vd/F [2, 7]: 273 L
- Tmax ([2]; single oral dose 200 mg, unformulated in capsule, healthy male subjects, median (min-max), read-out: Tmax): 1.5 h
- AUC(0-inf) [2, 8]: 600 to 27000 ng·h/mL
- AUC(0-t) [2, 8]: 500 to 24000 ng·h/mL
- Cmax [2, 8]: 30 to 1500 ng/mL
- half-life [2, 8]: 19 to 28 h
- Tmax ([2]; male, single oral doses 5-200 mg, unformulated in a capsule, healthy males, read-out: median Tmax): 1.5 to 2 h
- Vd/F [2, 8]: 200 to 300 L
- urinary excretion of unchanged Compound I ([2]; over 72 hrs post-dose, single oral doses): 9-13 % of the administered dose
- CLF [2, 3]: 133.36 mL/min
- CLF [2, 4]: 115.58 mL/min
- CLF [2, 5]: 113.88 mL/min
- CLF [2, 6]: 122.89 mL/min
- CLF [2, 7]: 126.02 mL/min
- CLF ([2]; single oral doses 5-200 mg): 100 to 140 mL/min
